Measurements published in paper PMC7959842, “Deregulation of Factor H by Factor H-Related Protein 1 Depends on Sialylation of Host Surfaces” (Frontiers in Immunology, 2021).

Assays:
Assay type in all cases: binding
FH18-20 [1] = biological target: T1, FH18-20 (Homo sapiens, UniProt P08603); experiment: intrinsic tryptophan fluorescence (nanoDSF), titration; also STD NMR; details: 50 mM HEPES pH 7.4, 150 mM NaCl, 3 mM EDTA; 20 and 37 °C; in solution
T1 construct: gene CFH; C-terminal fragment CCP18-20, monomeric, recombinant from Pichia pastoris
T1 sequence (P08603 1046-1231 limits assumed): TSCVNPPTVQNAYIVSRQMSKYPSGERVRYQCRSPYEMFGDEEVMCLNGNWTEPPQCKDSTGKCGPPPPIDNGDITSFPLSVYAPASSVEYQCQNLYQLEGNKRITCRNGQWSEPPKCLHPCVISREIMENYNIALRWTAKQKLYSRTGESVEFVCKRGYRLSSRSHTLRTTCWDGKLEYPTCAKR

FH18-20 [2] = biological target: T1, FH18-20; experiment: SPR, immobilised glycan, concentration series; details: labelled compound (biotin-coupled on streptavidin chip); PBS, 0.005% Tween20, 25 °C; rough estimate, saturation not reached; read-out: affinity
FH19-20 = biological target: T2, FH19-20 (Homo sapiens, UniProt P08603); experiment: SPR, immobilised glycan, concentration series; details: labelled compound (biotin-coupled on streptavidin chip); PBS, 0.005% Tween20, 25 °C; rough estimate, saturation not reached; read-out: affinity
T2 construct: gene CFH; C-terminal fragment CCP19-20, recombinant from Pichia pastoris
T2 sequence (P08603 1107-1231 limits assumed): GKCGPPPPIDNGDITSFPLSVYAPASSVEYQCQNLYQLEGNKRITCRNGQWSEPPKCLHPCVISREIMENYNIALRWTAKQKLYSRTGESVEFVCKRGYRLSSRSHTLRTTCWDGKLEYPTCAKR

Molecule: CC(=O)N[C@H]1[C@H]([C@H](O)[C@H](O)CO)O[C@@](O[C@H]2[C@@H](O)[C@@H](CO)O[C@@H](O[C@H]3[C@H](O)[C@@H](O)C(O)O[C@@H]3CO)[C@@H]2O)(C(=O)O)C[C@@H]1O (stereo partly drawn) [3’-sialyllactose]
- affinity (FH18-20 [1]): monovalent interactions in solution were generally weaker; with estimated affinities in the millimolar range

Molecule: biotinylated 3´-sialyl-N-acetyllactosaminide
- Kd (FH18-20 [2]): > 100 µM
- Kd (FH19-20): > 100 µM
